Tested on: Acinetobacter baumannii ATCC BAA-1797 (MDR)
Type: cell-based
Settings: Acinetobacter baumannii ATCC BAA-1797 (MDR)
Outline: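 Broth microdilution per CLSI in Mueller Hinton II broth with 0.002% polysorbate 80; SEQ ID NO:5 and 8 stocks in DMSO (2.5% final at top dilution), others in PBS; top test concentration 32 mcg/mL. Inoculum ~5×10^5 CFU/mL, 35° C for 16–20 hrs; MIC = lowest concentration preventing visible growth.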

Colistin [reference compound]
MIC: 0.5 µg/mL

— patent US20240115654A1, “INTRAVENOUS ADMINISTRATION OF ENGINEERED ANTIMICROBIAL AMPHIPHILIC PEPTIDES” (priority 2021, published 2024)
